In patent US9809578B2, “Pyrazolyl urea, thiourea, guanidine and cyanoguanidine compounds as trkA kinase inhibitors” (Array BioPharma Inc., priority 2012, dated 2017):

Assays:
Format in all cases: biochemical
Settings in all cases: 10 μM, ATP near Km
ARK5 = target: T1, ARK5 (Homo sapiens, UniProt O60285); experiment: KinaseProfiler ARK5
T1 construct: purchased Millipore (KinaseProfiler service)
Source text: (§1) The compound was run in duplicate at a concentration of ATP near the Km for each individual kinase according to Millipore's specifications.

CDK3/cyclinE = target: T2, CDK3/cyclinE (Homo sapiens, UniProt Q00526); experiment: KinaseProfiler CDK3/cyclinE
T2 construct: purchased Millipore, Inc. (KinaseProfiler service)
Source text: as §1

CK1_y = experiment: KinaseProfiler CK1_y
CK1gamma2 = target: T3, CK1gamma2 (Homo sapiens, UniProt P78368); experiment: KinaseProfiler CK1gamma2
T3 construct: purchased Millipore, Inc. (KinaseProfiler service)
Source text: as §1

c-RAF = target: T4, c-RAF (Homo sapiens, UniProt P04049, Y340D/Y341D); experiment: KinaseProfiler c-RAF
T4 construct: purchased Millipore, Inc. (KinaseProfiler service)
Source text: as §1

Fgr = target: T5, Fgr (Homo sapiens, UniProt P09769); experiment: KinaseProfiler Fgr
T5 construct: purchased Millipore, Inc. (KinaseProfiler service)
Source text: as §1

GSK3beta = target: T6, GSK3beta (Homo sapiens, UniProt P49841); experiment: KinaseProfiler GSK3beta
T6 construct: purchased Millipore, Inc. (KinaseProfiler service)
Source text: as §1

IKKbeta = target: T7, IKKbeta (Homo sapiens, UniProt O14920); experiment: KinaseProfiler IKKbeta
T7 construct: purchased Millipore, Inc. (KinaseProfiler service)
Source text: as §1

ITK = target: T8, ITK (Homo sapiens, UniProt Q08881); experiment: KinaseProfiler ITK
T8 construct: purchased Millipore, Inc. (KinaseProfiler service)
Source text: as §1

LKB1 = target: T9, LKB1 (Homo sapiens, UniProt Q15831); experiment: KinaseProfiler LKB1
T9 construct: purchased Millipore, Inc. (KinaseProfiler service)
Source text: as §1

MAPKAP-K5 = target: T10, MAPKAP-K5 (Homo sapiens, UniProt Q8IW41); experiment: KinaseProfiler MAPKAP-K5
T10 construct: purchased Millipore, Inc. (KinaseProfiler service)
Source text: as §1

MuSK = target: T11, MuSK (Homo sapiens, UniProt O15146); experiment: KinaseProfiler MuSK
T11 construct: purchased Millipore, Inc. (KinaseProfiler service)
Source text: as §1

p38gamma = target: T12, p38gamma (Homo sapiens, UniProt P53778); experiment: KinaseProfiler p38gamma
T12 construct: purchased Millipore, Inc. (KinaseProfiler service)
Source text: as §1

PKCalpha = target: T13, PKCalpha (Homo sapiens, UniProt P17252); experiment: KinaseProfiler PKCalpha
T13 construct: purchased Millipore, Inc. (KinaseProfiler service)
Source text: as §1

PKD2 = target: T14, PKD2 (Homo sapiens, UniProt Q9BZL6); experiment: KinaseProfiler PKD2
T14 construct: purchased Millipore, Inc. (KinaseProfiler service)
Source text: as §1

PTK5 = target: T15, PTK5 (Homo sapiens, UniProt P42685); experiment: KinaseProfiler PTK5
T15 construct: purchased Millipore, Inc. (KinaseProfiler service)
Source text: as §1

PTK6 = target: T16, PTK6 (Homo sapiens, UniProt Q13882); experiment: KinaseProfiler PTK6
T16 construct: purchased Millipore, Inc. (KinaseProfiler service)
Source text: as §1

TNK2 = target: T17, TNK2 (Homo sapiens, UniProt Q07912); experiment: KinaseProfiler TNK2
T17 construct: purchased Millipore, Inc. (KinaseProfiler service)
Source text: as §1

T17 sequence (Q07912 whole entry): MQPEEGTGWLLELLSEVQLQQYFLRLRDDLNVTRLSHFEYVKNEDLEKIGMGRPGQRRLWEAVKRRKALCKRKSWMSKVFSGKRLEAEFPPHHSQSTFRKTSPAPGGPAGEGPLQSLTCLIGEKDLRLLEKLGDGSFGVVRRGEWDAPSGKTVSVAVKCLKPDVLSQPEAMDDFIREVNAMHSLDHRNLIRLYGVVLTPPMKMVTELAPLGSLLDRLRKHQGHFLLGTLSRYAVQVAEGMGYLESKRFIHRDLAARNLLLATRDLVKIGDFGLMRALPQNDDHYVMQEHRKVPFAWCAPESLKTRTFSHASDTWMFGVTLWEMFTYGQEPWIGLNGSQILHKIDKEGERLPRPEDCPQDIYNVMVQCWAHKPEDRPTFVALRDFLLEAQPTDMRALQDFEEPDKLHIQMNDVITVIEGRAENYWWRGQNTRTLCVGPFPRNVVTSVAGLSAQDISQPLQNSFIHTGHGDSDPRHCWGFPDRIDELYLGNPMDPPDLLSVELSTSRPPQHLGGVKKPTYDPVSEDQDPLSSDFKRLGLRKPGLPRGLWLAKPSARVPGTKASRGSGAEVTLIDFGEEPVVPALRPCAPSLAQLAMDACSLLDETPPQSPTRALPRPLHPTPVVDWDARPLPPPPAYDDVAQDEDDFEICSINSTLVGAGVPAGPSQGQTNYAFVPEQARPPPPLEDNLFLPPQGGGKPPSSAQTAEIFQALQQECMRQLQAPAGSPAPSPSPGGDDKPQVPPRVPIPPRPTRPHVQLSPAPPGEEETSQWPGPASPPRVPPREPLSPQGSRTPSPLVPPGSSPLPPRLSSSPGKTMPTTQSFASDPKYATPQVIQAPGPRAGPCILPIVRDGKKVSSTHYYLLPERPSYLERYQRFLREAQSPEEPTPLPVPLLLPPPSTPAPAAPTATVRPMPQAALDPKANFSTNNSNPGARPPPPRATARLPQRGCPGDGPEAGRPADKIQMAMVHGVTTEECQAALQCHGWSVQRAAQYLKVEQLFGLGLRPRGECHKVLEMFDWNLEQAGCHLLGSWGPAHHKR
T8 sequence (Q08881 whole entry): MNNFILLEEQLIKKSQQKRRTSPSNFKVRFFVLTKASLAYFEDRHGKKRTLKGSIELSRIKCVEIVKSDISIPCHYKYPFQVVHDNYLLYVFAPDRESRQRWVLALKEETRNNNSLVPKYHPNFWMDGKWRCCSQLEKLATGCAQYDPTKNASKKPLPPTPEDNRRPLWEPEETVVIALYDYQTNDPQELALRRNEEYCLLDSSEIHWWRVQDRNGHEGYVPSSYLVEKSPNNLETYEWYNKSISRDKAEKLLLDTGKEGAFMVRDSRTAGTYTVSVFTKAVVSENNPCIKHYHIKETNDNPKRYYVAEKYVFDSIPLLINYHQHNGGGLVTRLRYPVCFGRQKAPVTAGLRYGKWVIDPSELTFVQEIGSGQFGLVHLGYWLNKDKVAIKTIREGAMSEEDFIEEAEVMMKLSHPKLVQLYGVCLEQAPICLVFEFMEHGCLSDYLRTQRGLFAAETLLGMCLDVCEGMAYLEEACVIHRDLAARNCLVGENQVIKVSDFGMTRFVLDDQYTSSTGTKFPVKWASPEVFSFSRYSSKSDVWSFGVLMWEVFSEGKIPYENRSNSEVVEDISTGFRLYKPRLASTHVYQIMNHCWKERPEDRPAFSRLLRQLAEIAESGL
T9 sequence (Q15831 whole entry): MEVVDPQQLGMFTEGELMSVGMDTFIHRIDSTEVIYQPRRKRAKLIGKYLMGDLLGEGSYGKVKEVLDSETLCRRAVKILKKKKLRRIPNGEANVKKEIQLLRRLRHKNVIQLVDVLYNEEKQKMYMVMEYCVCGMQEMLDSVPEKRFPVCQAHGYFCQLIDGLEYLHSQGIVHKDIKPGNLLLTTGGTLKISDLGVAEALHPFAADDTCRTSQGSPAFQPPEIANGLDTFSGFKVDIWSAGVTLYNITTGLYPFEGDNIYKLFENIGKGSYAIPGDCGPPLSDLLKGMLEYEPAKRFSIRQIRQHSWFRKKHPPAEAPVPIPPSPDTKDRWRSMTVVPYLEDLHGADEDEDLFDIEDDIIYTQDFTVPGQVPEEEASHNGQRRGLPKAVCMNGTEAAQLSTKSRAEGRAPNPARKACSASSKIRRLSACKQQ
T9 sequence (Q7RTN6 whole entry partner): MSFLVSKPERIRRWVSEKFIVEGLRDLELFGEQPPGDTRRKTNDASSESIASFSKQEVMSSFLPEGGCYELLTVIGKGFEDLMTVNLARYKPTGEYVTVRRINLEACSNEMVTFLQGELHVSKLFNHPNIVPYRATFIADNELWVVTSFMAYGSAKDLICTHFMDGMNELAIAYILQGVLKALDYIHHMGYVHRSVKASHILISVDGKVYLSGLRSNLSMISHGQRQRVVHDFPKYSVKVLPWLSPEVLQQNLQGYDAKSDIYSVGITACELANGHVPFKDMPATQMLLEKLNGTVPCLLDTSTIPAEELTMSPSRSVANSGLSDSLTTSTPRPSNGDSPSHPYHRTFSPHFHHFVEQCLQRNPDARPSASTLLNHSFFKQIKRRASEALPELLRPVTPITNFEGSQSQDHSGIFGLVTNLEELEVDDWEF
T9 sequence (Q9Y376 whole entry partner): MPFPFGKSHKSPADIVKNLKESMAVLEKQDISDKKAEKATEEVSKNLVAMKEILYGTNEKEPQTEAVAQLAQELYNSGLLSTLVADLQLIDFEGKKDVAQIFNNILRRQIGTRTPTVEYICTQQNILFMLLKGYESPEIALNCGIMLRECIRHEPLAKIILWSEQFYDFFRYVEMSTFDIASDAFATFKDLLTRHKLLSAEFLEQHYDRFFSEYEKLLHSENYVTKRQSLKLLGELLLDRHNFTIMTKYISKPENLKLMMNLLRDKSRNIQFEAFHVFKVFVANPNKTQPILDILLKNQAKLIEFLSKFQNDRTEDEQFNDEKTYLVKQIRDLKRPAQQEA
T7 sequence (O14920 whole entry): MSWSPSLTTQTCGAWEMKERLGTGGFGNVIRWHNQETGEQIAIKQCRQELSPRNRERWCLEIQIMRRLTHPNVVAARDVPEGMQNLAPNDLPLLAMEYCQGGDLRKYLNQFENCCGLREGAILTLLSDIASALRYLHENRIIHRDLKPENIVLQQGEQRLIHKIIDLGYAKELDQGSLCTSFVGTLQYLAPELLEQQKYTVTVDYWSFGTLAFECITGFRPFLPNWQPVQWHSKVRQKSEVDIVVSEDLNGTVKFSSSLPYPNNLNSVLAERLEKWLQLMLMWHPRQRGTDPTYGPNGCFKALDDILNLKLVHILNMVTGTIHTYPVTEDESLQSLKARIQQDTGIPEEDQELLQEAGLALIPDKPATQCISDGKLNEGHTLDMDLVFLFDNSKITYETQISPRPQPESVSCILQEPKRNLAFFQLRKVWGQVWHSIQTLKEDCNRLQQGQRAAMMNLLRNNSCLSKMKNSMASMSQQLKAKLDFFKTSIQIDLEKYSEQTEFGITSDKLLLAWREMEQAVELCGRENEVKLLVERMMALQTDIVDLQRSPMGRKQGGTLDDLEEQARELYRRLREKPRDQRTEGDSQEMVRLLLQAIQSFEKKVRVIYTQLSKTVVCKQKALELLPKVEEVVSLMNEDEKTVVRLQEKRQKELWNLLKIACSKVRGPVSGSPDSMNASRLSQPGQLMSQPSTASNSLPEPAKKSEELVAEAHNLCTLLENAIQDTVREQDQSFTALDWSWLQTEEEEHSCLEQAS
T14 sequence (Q9BZL6 whole entry): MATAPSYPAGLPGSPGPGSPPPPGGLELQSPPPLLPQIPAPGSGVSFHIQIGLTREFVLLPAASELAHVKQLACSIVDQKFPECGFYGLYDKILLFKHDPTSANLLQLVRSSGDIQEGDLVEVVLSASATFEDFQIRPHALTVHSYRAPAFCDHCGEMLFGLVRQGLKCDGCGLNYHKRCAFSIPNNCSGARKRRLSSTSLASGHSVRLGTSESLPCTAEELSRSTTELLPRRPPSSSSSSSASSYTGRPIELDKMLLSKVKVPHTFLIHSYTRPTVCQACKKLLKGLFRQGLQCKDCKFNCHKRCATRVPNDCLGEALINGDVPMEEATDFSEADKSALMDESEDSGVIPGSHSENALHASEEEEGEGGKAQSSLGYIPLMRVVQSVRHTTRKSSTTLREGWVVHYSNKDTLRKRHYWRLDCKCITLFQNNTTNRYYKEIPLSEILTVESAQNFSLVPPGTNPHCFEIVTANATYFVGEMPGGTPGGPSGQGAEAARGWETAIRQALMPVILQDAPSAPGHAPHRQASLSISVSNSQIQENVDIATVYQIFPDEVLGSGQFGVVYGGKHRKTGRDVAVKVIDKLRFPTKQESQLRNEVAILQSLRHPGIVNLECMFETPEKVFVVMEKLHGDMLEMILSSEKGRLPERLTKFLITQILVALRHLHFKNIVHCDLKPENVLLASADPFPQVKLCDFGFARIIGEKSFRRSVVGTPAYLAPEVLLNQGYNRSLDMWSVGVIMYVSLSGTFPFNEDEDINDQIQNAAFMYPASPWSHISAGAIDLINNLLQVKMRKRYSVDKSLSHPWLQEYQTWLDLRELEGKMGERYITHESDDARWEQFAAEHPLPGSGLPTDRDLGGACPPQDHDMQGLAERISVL
T5 sequence (P09769 whole entry): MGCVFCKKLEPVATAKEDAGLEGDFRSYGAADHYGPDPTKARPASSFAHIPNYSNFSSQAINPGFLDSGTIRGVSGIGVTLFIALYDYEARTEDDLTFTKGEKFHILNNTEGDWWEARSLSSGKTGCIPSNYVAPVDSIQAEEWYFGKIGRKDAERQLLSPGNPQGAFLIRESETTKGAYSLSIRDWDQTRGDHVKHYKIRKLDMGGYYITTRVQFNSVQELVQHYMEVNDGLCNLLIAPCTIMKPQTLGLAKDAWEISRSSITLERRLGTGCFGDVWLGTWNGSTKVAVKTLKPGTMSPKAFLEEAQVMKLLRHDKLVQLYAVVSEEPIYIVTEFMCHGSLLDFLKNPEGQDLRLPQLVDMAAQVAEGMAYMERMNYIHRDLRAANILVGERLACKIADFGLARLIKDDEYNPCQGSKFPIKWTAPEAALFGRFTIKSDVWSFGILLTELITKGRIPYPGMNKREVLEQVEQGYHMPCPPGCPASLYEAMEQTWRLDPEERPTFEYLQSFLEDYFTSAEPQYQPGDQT

## Cc1c(-c2cnn(C)c2)nn(-c2ccccc2)c1NC(=O)Nc1cc(C(F)(F)F)nn1-c1ccccc1 [Example 3, 1-(1′,4-dimethyl-1-phenyl-1H,1′H-[3,4′-bipyrazol]-5-yl)-3-(1-phenyl-3-(trifluoromethyl)-1H-pyrazol-5-yl)urea]
ARK5
  Avg POC: 92.5 POC
CDK3/cyclinE
  Avg POC: 103 POC
CK1_y
  Avg POC: 98 POC
CK1gamma2
  Avg POC: 109 POC
c-RAF
  Avg POC: 94.5 POC
Fgr
  Avg POC: 118 POC
GSK3beta
  Avg POC: 195 POC
IKKbeta
  Avg POC: 123 POC
ITK
  Avg POC: 128 POC
LKB1
  Avg POC: 95.5 POC
MAPKAP-K5
  Avg POC: 108.5 POC
MuSK
  Avg POC: 82.5 POC
p38gamma
  Avg POC: 114.5 POC
PKCalpha
  Avg POC: 104 POC
PKD2
  Avg POC: 115 POC
PTK5
  Avg POC: 102 POC
PTK6
  Avg POC: 110 POC
TNK2
  Avg POC: 118.5 POC
